In the NIST ThermoML archive (doi:10.1021/acs.jced.7b01125):

Assay: xn = mol fraction of the nth substance listed
Settings: Gas, Buoyancy - hydrostatic balance with magnetic suspension - one sinker

[HH] [hydrogen] + C
Settings	mass density [kg/m3]
250.05 K, 1999 kPa, x2 = 0.9	14.843
250.05 K, 8002 kPa, x2 = 0.9499	76.259
250.05 K, 10007 kPa, x2 = 0.9499	101.135
250.05 K, 11012 kPa, x2 = 0.9499	113.948
250.05 K, 12006 kPa, x2 = 0.9	113.812
250.05 K, 12009 kPa, x2 = 0.9499	126.528
250.05 K, 13012 kPa, x2 = 0.9	124.698
250.05 K, 13015 kPa, x2 = 0.9499	138.84
250.05 K, 14014 kPa, x2 = 0.9	135.178
250.05 K, 14017 kPa, x2 = 0.9499	150.503
250.05 K, 15015 kPa, x2 = 0.9	145.138
250.05 K, 15015 kPa, x2 = 0.9499	161.379
250.05 K, 16007 kPa, x2 = 0.9499	171.395
250.05 K, 16018 kPa, x2 = 0.9	154.622
250.05 K, 17011 kPa, x2 = 0.9	163.416
250.05 K, 17022 kPa, x2 = 0.9499	180.83
250.05 K, 18018 kPa, x2 = 0.9	171.725
250.05 K, 18020 kPa, x2 = 0.9499	189.342
250.05 K, 18962 kPa, x2 = 0.9499	196.737
250.05 K, 19023 kPa, x2 = 0.9	179.463
250.05 K, 19940 kPa, x2 = 0.9	186.044
260.03 K, 1002 kPa, x2 = 0.4997	4.206
260.03 K, 1977 kPa, x2 = 0.4997	8.33
260.03 K, 3002 kPa, x2 = 0.4997	12.694
260.03 K, 4002 kPa, x2 = 0.4997	16.974
260.03 K, 5000 kPa, x2 = 0.4997	21.26
260.03 K, 6003 kPa, x2 = 0.4997	25.579
260.03 K, 7000 kPa, x2 = 0.4997	29.878
260.03 K, 8000 kPa, x2 = 0.4997	34.185
260.03 K, 9003 kPa, x2 = 0.4997	38.489
260.03 K, 10005 kPa, x2 = 0.4997	42.775
260.03 K, 11002 kPa, x2 = 0.4997	47.008
260.03 K, 12008 kPa, x2 = 0.4997	51.246
260.03 K, 13002 kPa, x2 = 0.4997	55.387
260.03 K, 14009 kPa, x2 = 0.4997	59.544
260.03 K, 15005 kPa, x2 = 0.4997	63.583
260.03 K, 16009 kPa, x2 = 0.4997	67.621
260.03 K, 17009 kPa, x2 = 0.4997	71.57
260.03 K, 18006 kPa, x2 = 0.4997	75.418
260.03 K, 19113 kPa, x2 = 0.4997	79.651
260.04 K, 999 kPa, x2 = 0.9499	7.267
260.04 K, 1000 kPa, x2 = 0.9	6.927
260.04 K, 1999 kPa, x2 = 0.9499	14.926
260.04 K, 2000 kPa, x2 = 0.9	14.169
260.04 K, 2999 kPa, x2 = 0.9499	23.006
260.04 K, 3001 kPa, x2 = 0.9	21.762
260.04 K, 3999 kPa, x2 = 0.9499	31.515
260.04 K, 5000 kPa, x2 = 0.9499	40.497
260.04 K, 5999 kPa, x2 = 0.9499	49.941
260.04 K, 6001 kPa, x2 = 0.9	46.626
260.04 K, 7001 kPa, x2 = 0.9	55.622
260.04 K, 7002 kPa, x2 = 0.9499	59.886
260.04 K, 8003 kPa, x2 = 0.9	64.951
260.04 K, 8003 kPa, x2 = 0.9499	70.258
260.04 K, 9004 kPa, x2 = 0.9	74.538
260.04 K, 9006 kPa, x2 = 0.9499	81.038
260.04 K, 10006 kPa, x2 = 0.9	84.334
260.04 K, 10006 kPa, x2 = 0.9499	92.073
260.04 K, 11008 kPa, x2 = 0.9	94.232
260.04 K, 11011 kPa, x2 = 0.9499	103.316
260.04 K, 12013 kPa, x2 = 0.9499	114.514
260.04 K, 13017 kPa, x2 = 0.9499	125.55
260.04 K, 14016 kPa, x2 = 0.9499	136.214
260.04 K, 15018 kPa, x2 = 0.9499	146.448
260.04 K, 16023 kPa, x2 = 0.9499	156.169
260.04 K, 17019 kPa, x2 = 0.9499	165.22
260.04 K, 18026 kPa, x2 = 0.9499	173.779
260.04 K, 18756 kPa, x2 = 0.9499	179.616
260.05 K, 4000 kPa, x2 = 0.9	29.682
260.05 K, 5000 kPa, x2 = 0.9	37.974
260.05 K, 12009 kPa, x2 = 0.9	104.112
260.05 K, 13009 kPa, x2 = 0.9	113.883
260.05 K, 14013 kPa, x2 = 0.9	123.483
260.05 K, 15017 kPa, x2 = 0.9	132.774
260.05 K, 16016 kPa, x2 = 0.9	141.654
260.05 K, 17013 kPa, x2 = 0.9	150.096
260.05 K, 17614 kPa, x2 = 0.9	154.98
275 K, 1001 kPa, x2 = 0.4997	3.964
275 K, 2001 kPa, x2 = 0.4997	7.947
275 K, 3002 kPa, x2 = 0.4997	11.95
275 K, 4001 kPa, x2 = 0.4997	15.957
275 K, 5001 kPa, x2 = 0.4997	19.969
275 K, 6001 kPa, x2 = 0.4997	23.987
275 K, 7001 kPa, x2 = 0.4997	27.997
275 K, 8001 kPa, x2 = 0.4997	31.996
275 K, 9003 kPa, x2 = 0.4997	35.989
275 K, 10000 kPa, x2 = 0.4997	39.943
275 K, 12001 kPa, x2 = 0.4997	47.79
275 K, 13004 kPa, x2 = 0.4997	51.668
275.01 K, 999 kPa, x2 = 0.9499	6.842
275.01 K, 1000 kPa, x2 = 0.9	6.522
275.01 K, 1999 kPa, x2 = 0.9499	13.98
275.01 K, 2001 kPa, x2 = 0.9	13.293
275.01 K, 2997 kPa, x2 = 0.9499	21.412
275.01 K, 3001 kPa, x2 = 0.9	20.304
275.01 K, 4001 kPa, x2 = 0.9	27.568
275.01 K, 4002 kPa, x2 = 0.9499	29.206
275.01 K, 5002 kPa, x2 = 0.9499	37.281
